The values that follow come from patent US20260124192A1, “COMPOUNDS, COMPOSITIONS, AND METHODS OF TREATING RNA VIRAL INFECTIONS” (priority 2024, published 2026).

The assay relates to 13 viruses and variants. Kind of assay: organism not typed. The assay is classed as cell-based.

For the molecule `Cc1c(-c2ccc(O)cc2)n(Cc2ccc(OCCN3CCCCC3)cc2)c2ccc(O)cc12` [Pipendoxifene], the potency result was “submicromolar potency”.
